Experimental data published in PMC5474674, “D-BMAP18 Antimicrobial Peptide Is Active In vitro, Resists to Pulmonary Proteases but Loses Its Activity in a Murine Model of Pseudomonas aeruginosa Lung Infection” (Frontiers in Chemistry, 2017).
Values after ≈ are worked out from the molar mass of the structure shown. Where a SMILES comes first, the peptide text is derived from it. [ ]: non-standard residue; d: D form.

What was measured:
S. aureus SA2 = settings: D-BMAP18; strain SA2; broth microdilution, MH broth, 37°C 24 h; n = 6
P. aeruginosa PA22 = experiment: MIC/MBC broth microdilution; assay type: cell-based, Pseudomonas aeruginosa; settings: D-BMAP18, strain PA22, n = 6
Procedure: (§1) MIC values were determined using the broth microdilution method.

P. aeruginosa PA10 = experiment: MIC/MBC broth microdilution; assay type: cell-based, Pseudomonas aeruginosa; settings: D-BMAP18, strain PA10, n = 6
Procedure: as §1

P. aeruginosa PA01 = experiment: MIC/MBC broth microdilution; assay type: cell-based, Pseudomonas aeruginosa; settings: D-BMAP18, strain PA01, n = 6
Procedure: as §1

S. maltophilia SM143 = experiment: MIC/MBC broth microdilution; assay type: cell-based, Stenotrophomonas maltophilia; settings: D-BMAP18, strain SM143, n = 6
Procedure: as §1

S. maltophilia SM110 = experiment: MIC/MBC broth microdilution; assay type: cell-based, Stenotrophomonas maltophilia; settings: D-BMAP18, strain SM110, n = 6
Procedure: as §1

S. maltophilia SM139 = experiment: MIC/MBC broth microdilution; assay type: cell-based, Stenotrophomonas maltophilia; settings: D-BMAP18, strain SM139, n = 6
Procedure: as §1

S. maltophilia SM126 = experiment: MIC/MBC broth microdilution; assay type: cell-based, Stenotrophomonas maltophilia; settings: D-BMAP18, strain SM126, n = 6
Procedure: as §1

S. maltophilia SM123 = experiment: MIC/MBC broth microdilution; assay type: cell-based, Stenotrophomonas maltophilia; settings: D-BMAP18, strain SM123, n = 6
Procedure: as §1

S. maltophilia SM120 = experiment: MIC/MBC broth microdilution; assay type: cell-based, Stenotrophomonas maltophilia; settings: D-BMAP18, strain SM120, n = 6
Procedure: as §1

S. maltophilia SM105 = experiment: MIC/MBC broth microdilution; assay type: cell-based, Stenotrophomonas maltophilia; settings: D-BMAP18, strain SM105, n = 6
Procedure: as §1

S. maltophilia SM130 = experiment: MIC/MBC broth microdilution; assay type: cell-based, Stenotrophomonas maltophilia; settings: D-BMAP18, strain SM130, n = 6
Procedure: as §1

S. maltophilia SM103 = experiment: MIC/MBC broth microdilution; assay type: cell-based, Stenotrophomonas maltophilia; settings: D-BMAP18, strain SM103, n = 6
Procedure: as §1

S. maltophilia SM122 = experiment: MIC/MBC broth microdilution; assay type: cell-based, Stenotrophomonas maltophilia; settings: D-BMAP18, strain SM122, n = 6
Procedure: as §1

S. maltophilia SM106 = experiment: MIC/MBC broth microdilution; assay type: cell-based, Stenotrophomonas maltophilia; settings: D-BMAP18, strain SM106, n = 6
Procedure: as §1

S. maltophilia SM136 = experiment: MIC/MBC broth microdilution; assay type: cell-based, Stenotrophomonas maltophilia; settings: D-BMAP18, strain SM136, n = 6
Procedure: as §1

P. aeruginosa = assay type: cell-based, Pseudomonas aeruginosa; settings: 24 h
Procedure: (§2) P. aeruginosa, S. maltophilia, and Staphylococcus aureus strains were originally isolated from respiratory specimens of CF patients admitted to the “Bambino Gesù” Children Hospital in Rome and previously tested with AMPs (Pompilio et al., [2012]). P. aeruginosa RP73, and PAO1 were tested as reference strains.
as §1

S. aureus SA4 = experiment: MIC broth microdilution; assay type: cell-based, Staphylococcus aureus; settings: D-BMAP18, strain SA4, MH broth, 37°C 24 h, n = 6
Procedure: as §1

S. aureus SA3 = experiment: MIC broth microdilution; assay type: cell-based, Staphylococcus aureus; settings: D-BMAP18, strain SA3, MH broth, 37°C 24 h, n = 6
Procedure: as §1

S. aureus SA7 = experiment: MIC broth microdilution; assay type: cell-based, Staphylococcus aureus; settings: D-BMAP18, strain SA7, MH broth, 37°C 24 h, n = 6
Procedure: as §1

S. aureus SA5 = experiment: MIC broth microdilution; assay type: cell-based, Staphylococcus aureus; settings: D-BMAP18, strain SA5, MH broth, 37°C 24 h, n = 6
Procedure: as §1

S. maltophilia = assay type: cell-based, Stenotrophomonas maltophilia; settings: 24 h
Procedure: as §2, §1

P. aeruginosa RP73 = assay type: in vivo, mouse; settings: mouse, in vivo
Procedure: C57/Bl6NCrl mice (n = 8/group) were intratracheally challenged with 1 × 10^7 cells P. aeruginosa RP73 clinical strain, and 5 min later a single dose of D-BMAP18 at different concentrations (0.5, 1, and 2 mg/kg) was intratracheally administrated. Sterile distilled water alone or tobramycin [10 mg/kg] (Sigma-Aldrich S.r.l.), were used respectively as negative and positive control. […] Subsequently, lungs were homogenized (24,000 rpm) on ice in 1 ml of sterile PBS by using Ultra-Turrax T25-Basic homogenizer (IKA-Werke GmbH & Co. KG, Germany). Ten-fold serial dilutions of lung homogenates were plated on MH agar (Oxoid SpA), and the number of colony-forming units (CFU) was counted after incubation at 37°C for 24 h.

S. aureus SA1 = settings: D-BMAP18; strain SA1; broth microdilution, MH broth, 37°C 24 h; n = 6
[1] = broth microdilution, MH broth, 37°C 24 h
[2] = kills at least 99.9% of inoculum

`CC(C)C[C@@H](NC(=O)[C@@H](CCCCN)NC(=O)[C@@H](CCCCN)NC(=O)[C@@H](Cc1ccccc1)NC(=O)[C@@H](CC(C)C)NC(=O)[C@@H](CCCCN)NC(=O)[C@@H](CCCCN)NC(=O)[C@@H](Cc1ccccc1)NC(=O)[C@@H](CCCCN)NC(=O)[C@@H](CCCCN)NC(=O)[C@@H](CCCNC(=N)N)NC(=O)[C@@H](Cc1ccccc1)NC(=O)[C@@H](CCCNC(=N)N)NC(=O)[C@@H](CCCCN)NC(=O)[C@@H](Cc1ccccc1)NC(=O)[C@@H](CCCNC(=N)N)NC(=O)CN)C(=O)N[C@H](CO)C(N)=O` [D-BMAP18] (H-G[dR][dF][dK][dR][dF][dR][dK][dK][dF][dK][dK][dL][dF][dK][dK][dL][dS]-NH2) was tested, and the MIC (S. aureus SA2) was >32 µg/mL, the MIC (P. aeruginosa PA22; [1]) was 4 µg/mL (≈ 1.71 µM) and the MBC (P. aeruginosa PA22; [2]) was 32 µg/mL (≈ 13.7 µM). For the same molecule, the MIC (P. aeruginosa PA10; [1]) was 16 µg/mL (≈ 6.83 µM), the MBC (P. aeruginosa PA10; [2]) was 32 µg/mL (≈ 13.7 µM) and the MIC (P. aeruginosa PA01; [1]) was 8 µg/mL (≈ 3.42 µM). The MBC (P. aeruginosa PA01; [2]) was 32 µg/mL (≈ 13.7 µM), the MIC (S. maltophilia SM143; [1]) was 8 µg/mL (≈ 3.42 µM) and the MBC (S. maltophilia SM143; [2]) was 8 µg/mL (≈ 3.42 µM). For the same molecule, the MIC (S. maltophilia SM110; [1]) was 4 µg/mL (≈ 1.71 µM), the MBC (S. maltophilia SM110; [2]) was 4 µg/mL (≈ 1.71 µM) and the MIC (S. maltophilia SM139; [1]) was 8 µg/mL (≈ 3.42 µM). The MBC (S. maltophilia SM139; [2]) was 8 µg/mL (≈ 3.42 µM), the MIC (S. maltophilia SM126; [1]) was 16 µg/mL (≈ 6.83 µM) and the MBC (S. maltophilia SM126; [2]) was 32 µg/mL (≈ 13.7 µM). The MIC (S. maltophilia SM123; [1]) was 16 µg/mL (≈ 6.83 µM), the MBC (S. maltophilia SM123; [2]) was 16 µg/mL (≈ 6.83 µM) and the MIC (S. maltophilia SM120; [1]) was 8 µg/mL (≈ 3.42 µM). The MBC (S. maltophilia SM120; [2]) was 16 µg/mL (≈ 6.83 µM), the MIC (S. maltophilia SM105; [1]) was 8 µg/mL (≈ 3.42 µM) and the MBC (S. maltophilia SM105; [2]) was 8 µg/mL (≈ 3.42 µM). For the same molecule, the MIC (S. maltophilia SM130; [1]) was 8 µg/mL (≈ 3.42 µM), the MBC (S. maltophilia SM130; [2]) was 16 µg/mL (≈ 6.83 µM) and the MIC (S. maltophilia SM103; [1]) was 4 µg/mL (≈ 1.71 µM). The MBC (S. maltophilia SM103; [2]) was 4 µg/mL (≈ 1.71 µM), the MIC (S. maltophilia SM122; [1]) was 16 µg/mL (≈ 6.83 µM) and the MBC (S. maltophilia SM122; [2]) was 16 µg/mL (≈ 6.83 µM). The MIC (S. maltophilia SM106; [1]) was 32 µg/mL (≈ 13.7 µM), the MBC (S. maltophilia SM106; [2]) was 32 µg/mL (≈ 13.7 µM) and the MIC (S. maltophilia SM136; [1]) was 8 µg/mL (≈ 3.42 µM). For the same molecule, the MBC (S. maltophilia SM136; [2]) was 16 µg/mL (≈ 6.83 µM), the MIC90 (P. aeruginosa) was 16 µg/mL (≈ 6.83 µM) and the MIC (S. aureus SA4) was >32 µg/mL. The MIC (S. aureus SA3) was >32 µg/mL, the MIC (S. aureus SA7) was >32 µg/mL and the MIC (S. aureus SA5) was >32 µg/mL. The MIC90 (S. maltophilia) was 16 µg/mL (≈ 6.83 µM), the “trend between dose and macroscopic lung damage” value (P. aeruginosa RP73) was “not statistically significant” and the MIC (S. aureus SA1) was >32 µg/mL.
